# Source: patent US9545447B2, “Polymer-drug systems” (THE TEXAS A&M UNIVERSITY SYSTEM, priority 2013, dated 2017)
# Where two headings read alike, the source gives them in different places.
# Key:
# [1] = tested on: KB cells, a human nasal pharyngeal cancer cell line; assay: Cell viability (WST-1), KB cells; assay type: cell-based; conditions: Table 1, 72 h, PTX as free PTX
# Method: Polymer paclitaxel and free paclitaxel were tested in KB cells, a human nasal pharyngeal cancer cell line and A549 cells, a human lung carcinoma cell line. KB and A549 cells (ATCC, Manassas, Va.) were maintained in monolayer cultures in folate free RPMI (Life Technologies, Carlsbad, Calif.) and F-12K media (Mediatech, Manassas, Va.) respectively, supplemented with 10% fetal bovine serum and penicillin/streptomycin antibiotics. For screening purposes 2,500 cells in 100 μL of complete cell culture media were plated in a 96 well plate (Corning, Lowell, Mass.) in triplicates and were then incubated for 24 h in a humidified CO2 cell culture incubator maintained at 37° C. Serial dilutions of polymer-paclitaxel conjugates and paclitaxel were prepared in PBS and added to cells in a volume of 10 μL. The cells were either incubated for a short period of 2 h or for longer continuous incubation of 72 h. After 2 h incubation, the media was replaced with 110 μL of fresh complete RPMI. Cell viability was assessed by using a colorimetric WST-1 cell proliferation kit (Roche, Indianapolis, Ind.) and following manufacturer's instructions. Cell viability was calculated as a percentage of the control cells treated with no drugs. […]
# [2] = tested on: Human ovarian adenocarcinoma cells (OVCAR-3); assay: Cytotoxicity assay (MTS), OVCAR-3; assay type: cell-based
# Method: (§1) Human ovarian adenocarcinoma cells (OVCAR-3) (5×10^3 cells/well) and RAW 264.7 mouse macrophages (2×10^4 cells/well) were plated in 96-well plate in RPMI-1640 medium and Dulbecco's Modified Eagle's Medium (DMEM) (20% and 10% fetal bovine serum, for the OVCAR-3 and RAW 264.7, respectively and 1% penicillin/streptomycin). […] The paclitaxel conjugate was prepared as described previously, and the Taxol®-mimicking formulation was prepared in similar composition to Taxol® (i.e. Cremophor-EL and ethanol, 1:1 v/v). For each well, 20 μL of every formulation was added to 100 μL of the medium. The cells were incubated with the formulations for 72 h and washed once with phosphate-buffered saline (PBS) and 100 μL of the complete medium was added to the cells. 20 μL of the MTS combined reagent was added to each well (Cell Titer 96® Aqueous Non-Radioactive Cell Proliferation Assay, Promega Co., Madison, Wis.). […] Absorbance was measured at 490 nm using SpectraMax M5 (Molecular Devices Co., Sunnyvale, Calif.). The cell viability was calculated based on the relative absorbance to the control untreated cells. The IC50 values were calculated using GraphPad Prism four-parameter fit, considering the 0% and 100% viabilities correspond to the medium control (no cells) and cells-treated with PBS, respectively.
# [3] = Saturate concentration of PTX in PBS buffer by UV; assay type: physicochemical
# Method: The saturate concentration is around 1.7 ug/mL. PTX concentrations as low as 6.25 ng/mL were detected.
# [4] = tested on: RAW 264.7 mouse macrophages; assay: Cytotoxicity assay (MTS), RAW 264.7; assay type: cell-based
# Method: as §1
compound,measurement,setting,value
"CC(=O)O[C@H]1C(=O)[C@@]2(C)[C@H]([C@H](OC(=O)c3ccccc3)[C@]3(O)C[C@H](OC(=O)[C@H](O)[C@@H](NC(=O)c4ccccc4)c4ccccc4)C(C)=C1C3(C)C)[C@]1(OC(C)=O)CO[C@@H]1C[C@@H]2O [PTX, paclitaxel]",IC50,[1],0.0044 µM
same,IC50,"[2]; Table 1, 72 h, PTX as Taxol®-mimicking formulation (Cremophor-EL and ethanol, 1:1 v/v), read-out: IC50 (μM) OVCAR-3",0.007 µM
same,IC50,"[2]; Table 2, 72 hours, PTX as Taxol-mimicking formulation, read-out: IC50 (μM)in OVCAR-3",0.007 µM
same,saturate concentration of PTX,[3],around 1.7 ug/mL
same,IC50,"[4]; RAW264.7, Table 1, 72 h, PTX as Taxol®-mimicking formulation (Cremophor-EL and ethanol, 1:1 v/v), read-out: IC50 (μM) RAW 264.7",0.044 µM
same,IC50,"[4]; RAW264.7, Table 2, 72 hours, PTX as Taxol-mimicking formulation, read-out: IC50 (μM) in RAW 264.7",0.04 µM
